Measured values reported in US20250066290A1, “DHODH INHIBITORS CONTAINING A CARBOXYLIC ACID BIOISOSTERE” (IMMUNIC AG, priority 2021, published 2025).
Like-named read-outs stand apart in the source and are kept apart here.

Columns and labels:
[1] = biological target: N-terminally truncated recombinant hDHODH enzyme (Homo sapiens, UniProt Q02127); assay: biochemical; assay type: biochemical
Protocol: Briefly, the hDHODH concentration was adjusted in a way that an average slope of approximately 0.2 AU/min served as the positive control (e.g. without inhibitor). The standard assay mixture contained 60 μM 2,6-dichloroindophenol, 50 μM decylubiquinone and 100 μM dihydroorotate. The hDHODH enzyme with or without at least six different concentrations of the compounds was added and measurements were performed in 50 mM TrisHCl, 150 mM KCl and 0.1% Triton X-100 at pH 8.0 and at 30° C. The reaction was started by adding dihydroorotate and measuring the absorption at 600 nm for 2 min. For the determination of the IC50 values, each data point was recorded in triplicate. […].

[2] = system: SARS-CoV-2; assay: SARS-CoV-2 viral replication (YFP) assay; assay type: cell-based; conditions: Severe acute respiratory syndrome coronavirus 2, read-out: EC50 range
[3] = Metabolic stability in rat liver microsomes; conditions: SD
From the text: (§1) The metabolism was monitored by HPLC-MS/MS. Verapamil served as positive control.

[4] = Metabolic stability in human liver microsomes
From the text: as §1

[5] = human DHODH assay, read-out: IC50 range

Chain of N-terminally truncated recombinant hDHODH enzyme (Q02127 whole entry, looked up, the tested form may be a part): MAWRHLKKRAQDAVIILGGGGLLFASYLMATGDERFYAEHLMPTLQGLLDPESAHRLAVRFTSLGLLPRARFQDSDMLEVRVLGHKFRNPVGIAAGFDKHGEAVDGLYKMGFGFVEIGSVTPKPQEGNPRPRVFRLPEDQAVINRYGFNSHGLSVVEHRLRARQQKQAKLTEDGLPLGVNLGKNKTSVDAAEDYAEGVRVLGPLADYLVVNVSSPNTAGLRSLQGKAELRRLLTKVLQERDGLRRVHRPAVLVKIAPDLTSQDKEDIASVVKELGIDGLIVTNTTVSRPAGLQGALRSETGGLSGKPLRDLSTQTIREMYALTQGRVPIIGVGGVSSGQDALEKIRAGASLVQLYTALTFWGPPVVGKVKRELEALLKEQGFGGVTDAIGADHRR

SMILES	IC50 [1, 5] [nM]	EC50 [2] [nM]	IC50 [1] [nM]	also measured
[2H]C([2H])([2H])Oc1cccc(-c2c(F)c(F)c(NC(=O)C3=C(C(=O)NS(N)(=O)=O)COC3)c(F)c2F)c1 [Example 2-1/1]	< 100	10000 to 25000		
[2H]C([2H])([2H])Oc1cccc(-c2c(F)c(F)c(NC(=O)C3=C(C(=O)NS(C)(=O)=O)CC(F)(F)C3)c(F)c2F)c1 [1/12]	< 100	< 1000		
[2H]C([2H])([2H])Oc1cccc(-c2c(F)c(F)c(NC(=O)c3c[nH]cc3C(=O)NOC)c(F)c2F)c1 [4/30]		< 10000	100 to 1000	
CONC(=O)c1sccc1C(=O)Nc1c(F)cc(-c2cccc(OC)c2)cc1F [Example 9/9]	< 100			microsomal CLint ([3]; female): 69.3 µL/min/mg; microsomal CLint ([3]; male): 192 µL/min/mg; microsomal CLint ([4]; female): 66.1 µL/min/mg; microsomal CLint ([4]; male): 93.9 µL/min/mg
COc1cccc(-c2c(F)c(F)c(NC(=O)C3=C(C(=O)NS(C)(=O)=O)CCC3)c(F)c2F)c1 [Example 1/13]	< 100			microsomal CLint ([3]; female): 35.4 µL/min/mg; microsomal CLint ([3]; male): 25.5 µL/min/mg; microsomal CLint ([4]; female): 10.3 µL/min/mg; microsomal CLint ([4]; male): 14.4 µL/min/mg
[2H]C([2H])([2H])Oc1cccc(-c2c(F)c(F)c(NC(=O)C3=C(C(=O)NS(N)(=O)=O)CC(F)(F)C3)c(F)c2F)c1 [2/5]	< 100	< 1000		
[2H]C([2H])([2H])Oc1cccc(-c2c(F)c(F)c(NC(=O)c3cscc3C(=O)NS(N)(=O)=O)c(F)c2F)c1 [2/6]	< 100	< 10000		
[2H]c1c([2H])c([2H])c(-c2c(F)c(F)c(NC(=O)C3=C(C(=O)NOC([2H])([2H])[2H])COC3)c(F)c2F)c([2H])c1[2H] [Example 5/1]	< 100	< 1000		
[2H]C([2H])([2H])Oc1cccc(-c2cc(F)c(NC(=O)C3=C(C(=O)NOC)CC(F)(F)C3)c(F)c2)c1 [4/25]	< 100	< 1000		
[2H]C([2H])([2H])Oc1cccc(-c2cc(F)c(NC(=O)C3=C(/C(N)=N/O)CCC3)c(F)c2)c1 [Example 3-1, (Z)—N-(3,5-Difluoro-3′-(methoxy-d3)-[1,1′-biphenyl]-4-yl)-2-(N-hydroxycarbamimid-oyl)cyclopent-1-ene-1-carboxamide]		< 10000	> 10000	
[2H]C([2H])([2H])Oc1cccc(-c2cc(F)c(NC(=O)C3=C(C(=O)NS(=O)(=O)C(F)F)CCC3)c(F)c2)c1 [1/3]		25000 to 50000	1000 to 10000	
[2H]C([2H])([2H])Oc1ccccc1-c1cc(F)c(NC(=O)C2=C(C(=O)NS(C)(=O)=O)CCC2)c(F)c1 [1/6]	< 100	25000 to 50000		
[2H]C([2H])([2H])Oc1cccc(-c2cnc(NC(=O)C3=C(C(=O)NOC)CCC3)c(F)c2)c1 [Example 8, N^1-(3-Fluoro-5-(3-(methoxy-d3)phenyl)pyridin-2-yl)-N^2-methoxycyclopent-1-ene-1,2-dicarboxamide]		> 50000	1000 to 10000	
[2H]C([2H])([2H])Oc1cccc(-c2c(F)c(F)c(NC(=O)c3cscc3C(=O)NOC)c(F)c2F)c1 [4/28]	< 100	< 1000		
[2H]C([2H])([2H])Oc1cccc(-c2ccc(NC(=O)C3=C(C(=O)NOC)CCC3)c3ccccc23)c1 [4/12]	> 10000	< 10000		
[2H]C([2H])([2H])Oc1cccc(-c2cc(F)c(NC(=O)C3=C(C(=O)NOC)COC3)c(F)c2)c1 [Example 5, N^3-(3,5-Difluoro-3′-(methoxy-d3)-[1,1′-biphenyl]-4-yl)-N^4-methoxy-2,5-dihydrofuran-3,4-dicarboxamide]		< 10000	100 to 1000	
[2H]C([2H])([2H])Oc1ccccc1-c1c(F)c(F)c(NC(=O)C2=C(C(=O)NOCCO)CCC2)c(F)c1F [4/27]		< 1000	100 to 1000	
[2H]C([2H])([2H])Oc1cccc(-c2cc(F)c(NC(=O)C3=C(C(=O)NOCCF)CCC3)c(F)c2)c1 [4/2]		< 10000	100 to 1000	
